Test results: patent US9233095B2, “Small molecule RNase inhibitors and methods of use” (University of Rochester, priority 2011, dated 2016)
Converted amounts (≈) assume the structure as drawn. Where two headings read alike, the source gives them in different places.

What was measured:
A. baumannii = test: CLSI broth microdilution MIC; type: cell-based, Acinetobacter baumannii
Source text: (§1) In some examples, compounds can be further assayed using the Mueller Hinton (MH) broth antibacterial assay as specified by the Clinical and Laboratory Standards Institute MIC broth microdilution protocol (see Methods for Dilution Antimicrobial Susceptibility Tests for Bacteria That Grow Aerobically; Approved Standard, In The Clinical and Laboratory Standards Institute (CLSI, formerly NCCLS), 7th ed., January 2006, 26 (2), M7-A7; see also Performance Standards for Antimicrobial Susceptibility Testing; Eighteenth Informational Supplement, In The Clinical and Laboratory Standards Institute (CLSI, formerly NCCLS), January 2008, 28 (1), M100-S18).
(§2) With the exception of RN4220-derivatives, in vitro activities of RNPA1000 against bacteria were determined by the broth microdilution method according to the Clinical and Laboratory Standards Institute (CLSI) guidelines using cation adjusted Mueller-Hinton broth or MH broth supplemented with 5% lysed horse blood (for testing Streptotococcus spp.). Microtiter plates containing serial dilutions of RNPA1000 (0, 4, 8, 16, 32, 64, and 128 μg/ml) were inoculated with 10^5 colony forming units (CFU)/ml and incubated for 18 hr at 37° C. […] The MIC value for each S. aureus strain was determined to be the median score of replicate measurements (n=5). Wells containing concentrations of RNPA1000≧MIC were plated for minimal bactericidal measurement. Where possible, experiments with VRSA strains were performed in a laminar flow hood to minimize potential for equipment contamination. For RN4220 cells containing plasmid vector (pCN51), RnpA overproducing plasmid (pRNPA-S) or RnpA underproducing plasmid (pRNPA-A.S.) in vitro antimicrobial activity of RNPA1000 was performed by the microdilution method as described above, except that cells were grown in Tryptic Soy Broth medium supplemented with 2.5 μM CdCl2 and 0, 1, 2, 4, 8, 16, 32, 64, or 128 μg/ml RNPA1000. Time-kill assays were also performed to monitor the antimicrobial properties of RNPA1000 for S. aureus strain UAMS-1 in the absence and presence of 0.25, 0.5, 2, and 4 times the strain's MIC for oxacillin (1 μg/ml), rifampicin (0.5 μg/ml), vancomycin (2 μg/ml), or daptomycin (1 μg/ml). The indicated amount of RNPA1000 and/or commercial antibiotic were added to mid-exponential phase (2×10^8 cfu/ml) S. aureus strain UAMS-1 cells and incubated at 37° C. Aliquots were removed at 0, 2, 4, 8, and 24 hr post-antimicrobial challenge, serial diluted, and plated to enumerate resulting cfu/ml. All time-kill assays were repeated at least 3 times.

S. aureus (MSSA) = test: CLSI broth microdilution MIC; type: cell-based, Staphylococcus aureus; settings: Staphylococcus aureus, MSSA; strain UAMS-1
Source text: as §1, §2

E. faecalis = test: CLSI broth microdilution MIC; type: cell-based, Enterococcus faecalis
Source text: as §1, §2

E. coli = test: CLSI broth microdilution MIC; type: cell-based, Escherichia coli
Source text: as §1, §2

S. aureus strain UAMS-1 = test: time-kill assay; type: cell-based
Description: as §2

[1] = combination time-kill, data not shown

**Q.** What does the source list for `Cc1cc(/C=C(/C#N)C(=O)Nc2cccc(Br)c2)c(C)n1-c1ccc(C(=O)O)cc1` [RNPA1000]?
**A.** effect of efflux inhibitor reserpine on RNPA1000 susceptibility (A. baumannii): no effect; effect on growth (A. baumannii): did not affect; MIC (A. baumannii; A. baumannii Isolate 2): >64 µg/mL; MIC (A. baumannii; A. baumannii Isolate 3): >64 µg/mL; MIC (A. baumannii; A. baumannii Isolate 4): >64 µg/mL; MIC (A. baumannii; A. baumannii Isolate 5): >64 µg/mL; MIC (A. baumannii; A. baumannii Isolate 5 + reserpine): >64 µg/mL; MIC (A. baumannii; Acinetobacter baumannii): > 64 µg/mL; MIC (S. aureus (MSSA)): 26 µg/mL (≈ 56 µM); antimicrobial activity in words (E. faecalis): mild activity; MIC (E. faecalis; E. faecalis Isolate 1): 64 µg/mL (≈ 138 µM); MIC (E. faecalis; E. faecalis Isolate 3): 64 µg/mL (≈ 138 µM); MIC (E. faecalis; E. faecalis Isolate 4): 64 µg/mL (≈ 138 µM); MIC (E. faecalis; E. faecalis Isolate 5): 64 µg/mL (≈ 138 µM); MIC (E. faecalis; Enterococcus faecalis, E. faecalis Isolate 2, read-out: MIC): 64 µg/mL (≈ 138 µM); effect on growth (E. coli): did not affect; MIC (E. coli; E. coli Isolate 2): >64 µg/mL; MIC (E. coli; E. coli Isolate 3): >64 µg/mL; MIC (E. coli; E. coli Isolate 4): >64 µg/mL; MIC (E. coli; E. coli Isolate 5): >64 µg/mL; MIC (E. coli; Escherichia coli, E. coli Isolate 1, read-out: MIC): > 64 µg/mL; mode of antimicrobial action in time kill assays (S. aureus strain UAMS-1; 0.25-4 times the MIC, 0-24 hr): bacteriostatic; effect on the potency of oxacillin (S. aureus strain UAMS-1; combination time-kill, 0.5 times the MIC of each): mildly increase the potency; effect on the antimicrobial activity of daptomycin (S. aureus strain UAMS-1; [1]): does not affect the antimicrobial activities; effect on the antimicrobial activity of rifampicin (S. aureus strain UAMS-1; [1]): does not affect the antimicrobial activities; effect on the antimicrobial activity of vancomycin (S. aureus strain UAMS-1; [1]): does not affect the antimicrobial activities
